{"source": "patent US20260042764A1", "about": "“COMPOSITIONS AND METHODS FOR INHIBITION OF KRAS” (TheRas, Inc., priority 2022, published 2026)"}
{"target": "T1, Avi-KRAS G12D (1-169) GppNHp/RAF1 RBD-3xFLAG (52-151) (Homo sapiens, UniProt P01116, G12D)", "T1 construct": "Avi-KRAS G12D (1-169)", "T1 sequence (P01116 1-169 isoform P01116-2 G12D)": "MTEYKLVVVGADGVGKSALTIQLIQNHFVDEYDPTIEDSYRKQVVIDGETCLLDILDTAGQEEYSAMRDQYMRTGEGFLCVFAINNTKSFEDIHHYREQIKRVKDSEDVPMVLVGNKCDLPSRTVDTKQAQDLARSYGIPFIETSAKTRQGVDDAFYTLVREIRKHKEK", "assay": "Raf1-KRAS G12D-GppNHP disruption HTRF assay (Biological Example 1)", "format": "binding", "details": "KRAS G12D-GppNHp/RAF1 RBD HTRF", "summary_of_the_method": "(§1)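 Percent activity versus DMSO (100%) was derived from HTRF signal after KRAS–RAF1 RBD protein mix was incubated 1 h at room temperature with shaking and detection reagents were added for a further 1 h.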", "units": {"IC50": "nM"}}
{"smiles": "C[C@H]1N(C(=O)C2CC2)CC[C@@]1(C)N(C)c1nc(OC[C@@]23CCCN2C[C@H](F)C3)nc2c(F)c(-c3ccc(F)c4sc(N)c(C#N)c34)c(C(F)(F)F)cc12", "note": "[Compound 344]", "IC50": "1000 to 10000"}
{"smiles": "CC(C)C(=O)N1CC[C@@](C)(N(C)c2nc(OC[C@@]34CCCN3C[C@H](F)C4)nc3c(F)c(-c4ccc(F)c5sc(N)c(C#N)c45)c(C(F)(F)F)cc23)[C@H]1C", "note": "[Compound 345]", "IC50": "1000 to 10000"}
{"smiles": "CC(=O)N1C[C@H](O)[C@@H](N(C)c2nc(OC[C@@]34CCCN3C[C@H](F)C4)nc3c(F)c(-c4ccc(F)c5sc(N)c(C#N)c45)c(C(F)(F)F)cc23)C1", "note": "[Compound 347]", "IC50": "< 100"}
{"smiles": "CCC(=O)N1CC[C@H](N(CC)c2nc(OC[C@@]34CCCN3C[C@H](F)C4)nc3c(F)c(-c4ccc(F)c5sc(N)c(C#N)c45)c(C(F)(F)F)cc23)C1", "note": "[Compound 349]", "IC50": "< 100"}
{"smiles": "CCN(c1nc(OC[C@@]23CCCN2C[C@H](F)C3)nc2c(F)c(-c3ccc(F)c4sc(N)c(C#N)c34)c(C(F)(F)F)cc12)[C@H]1CCS(=O)(=O)C1", "note": "[Compound 350]", "IC50": "100 to 1000"}
{"target": "T2, Avi-KRAS G12R (1-169) GppNHp/RAF1 RBD-3xFLAG (52-151) (Homo sapiens, UniProt P01116, G12R)", "T2 construct": "Avi-KRAS G12R (1-169)", "T2 sequence (P01116 1-169 isoform P01116-2 G12R)": "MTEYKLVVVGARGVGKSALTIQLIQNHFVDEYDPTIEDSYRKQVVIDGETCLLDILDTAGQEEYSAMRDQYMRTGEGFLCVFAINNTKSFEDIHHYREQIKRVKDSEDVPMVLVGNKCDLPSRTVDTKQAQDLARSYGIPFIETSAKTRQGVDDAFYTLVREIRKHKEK", "assay": "Raf1-KRAS G12R-GppNHP disruption HTRF assay (Biological Example 1)", "format": "binding", "details": "KRAS G12R-GppNHp/RAF1 RBD HTRF", "summary_of_the_method": "as §1", "units": {"IC50": "nM"}}
{"smiles": "C[C@H]1N(C(=O)C2CC2)CC[C@@]1(C)N(C)c1nc(OC[C@@]23CCCN2C[C@H](F)C3)nc2c(F)c(-c3ccc(F)c4sc(N)c(C#N)c34)c(C(F)(F)F)cc12", "note": "[Compound 344]", "IC50": "> 10000"}
{"smiles": "CC(C)C(=O)N1CC[C@@](C)(N(C)c2nc(OC[C@@]34CCCN3C[C@H](F)C4)nc3c(F)c(-c4ccc(F)c5sc(N)c(C#N)c45)c(C(F)(F)F)cc23)[C@H]1C", "note": "[Compound 345]", "IC50": "> 10000"}
{"smiles": "CC(=O)N1C[C@H](O)[C@@H](N(C)c2nc(OC[C@@]34CCCN3C[C@H](F)C4)nc3c(F)c(-c4ccc(F)c5sc(N)c(C#N)c45)c(C(F)(F)F)cc23)C1", "note": "[Compound 347]", "IC50": "100 to 1000"}
{"smiles": "CCC(=O)N1CC[C@H](N(CC)c2nc(OC[C@@]34CCCN3C[C@H](F)C4)nc3c(F)c(-c4ccc(F)c5sc(N)c(C#N)c45)c(C(F)(F)F)cc23)C1", "note": "[Compound 349]", "IC50": "< 100"}
{"smiles": "CCN(c1nc(OC[C@@]23CCCN2C[C@H](F)C3)nc2c(F)c(-c3ccc(F)c4sc(N)c(C#N)c34)c(C(F)(F)F)cc12)[C@H]1CCS(=O)(=O)C1", "note": "[Compound 350]", "IC50": "100 to 1000"}
{"tested_on": "SW620 cells (KRAS G12V)", "assay": "Cell-based pERK HTRF assay in SW620 cell (Biological Example 4)", "details": "Homo sapiens, SW-620, SW620 (KRAS G12V) cells, pERK HTRF", "summary_of_the_method": "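In SW620 cells grown in RPMI with 10% FBS, a 4 h compound treatment (0.25% DMSO, 9-point curve from 1 μM) preceded lysis. Phospho-ERK levels were then read by time-resolved FRET at 615 nm emission.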", "units": {"IC50": "nM"}}
{"smiles": "C[C@H]1N(C(=O)C2CC2)CC[C@@]1(C)N(C)c1nc(OC[C@@]23CCCN2C[C@H](F)C3)nc2c(F)c(-c3ccc(F)c4sc(N)c(C#N)c34)c(C(F)(F)F)cc12", "note": "[Compound 344]", "IC50": "100 to 1000"}
{"smiles": "CC(C)C(=O)N1CC[C@@](C)(N(C)c2nc(OC[C@@]34CCCN3C[C@H](F)C4)nc3c(F)c(-c4ccc(F)c5sc(N)c(C#N)c45)c(C(F)(F)F)cc23)[C@H]1C", "note": "[Compound 345]", "IC50": "100 to 1000"}
{"smiles": "CC(=O)N1C[C@H](O)[C@@H](N(C)c2nc(OC[C@@]34CCCN3C[C@H](F)C4)nc3c(F)c(-c4ccc(F)c5sc(N)c(C#N)c45)c(C(F)(F)F)cc23)C1", "note": "[Compound 347]", "IC50": "100 to 1000"}
{"smiles": "CCC(=O)N1CC[C@H](N(CC)c2nc(OC[C@@]34CCCN3C[C@H](F)C4)nc3c(F)c(-c4ccc(F)c5sc(N)c(C#N)c45)c(C(F)(F)F)cc23)C1", "note": "[Compound 349]", "IC50": "< 100"}
{"smiles": "CCN(c1nc(OC[C@@]23CCCN2C[C@H](F)C3)nc2c(F)c(-c3ccc(F)c4sc(N)c(C#N)c34)c(C(F)(F)F)cc12)[C@H]1CCS(=O)(=O)C1", "note": "[Compound 350]", "IC50": "< 100"}
{"tested_on": "GP2d cells (KRAS G12D)", "assay": "Cell-based pERK HTRF assay in GP2d cell (Biological Example 2)", "details": "GP2d, GP2d (KRAS G12D) cells, pERK HTRF", "summary_of_the_method": "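Cells grown in DMEM with 10% FBS were exposed to compound for 60 min at 0.25% DMSO, using a 9-point half-log series starting at 1 μM or 100 nM. Lysates were then mixed with d2 and Eu cryptate antibodies for 4–24 h at room temperature, and pERK was read by HTRF.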", "units": {"IC50": "nM"}}
{"smiles": "C[C@H]1N(C(=O)C2CC2)CC[C@@]1(C)N(C)c1nc(OC[C@@]23CCCN2C[C@H](F)C3)nc2c(F)c(-c3ccc(F)c4sc(N)c(C#N)c34)c(C(F)(F)F)cc12", "note": "[Compound 344]", "IC50": "< 100"}
{"smiles": "CC(C)C(=O)N1CC[C@@](C)(N(C)c2nc(OC[C@@]34CCCN3C[C@H](F)C4)nc3c(F)c(-c4ccc(F)c5sc(N)c(C#N)c45)c(C(F)(F)F)cc23)[C@H]1C", "note": "[Compound 345]", "IC50": "100 to 1000"}
{"smiles": "CC(=O)N1C[C@H](O)[C@@H](N(C)c2nc(OC[C@@]34CCCN3C[C@H](F)C4)nc3c(F)c(-c4ccc(F)c5sc(N)c(C#N)c45)c(C(F)(F)F)cc23)C1", "note": "[Compound 347]", "IC50": "< 100"}
{"smiles": "CCC(=O)N1CC[C@H](N(CC)c2nc(OC[C@@]34CCCN3C[C@H](F)C4)nc3c(F)c(-c4ccc(F)c5sc(N)c(C#N)c45)c(C(F)(F)F)cc23)C1", "note": "[Compound 349]", "IC50": "< 100"}
{"smiles": "CCN(c1nc(OC[C@@]23CCCN2C[C@H](F)C3)nc2c(F)c(-c3ccc(F)c4sc(N)c(C#N)c34)c(C(F)(F)F)cc12)[C@H]1CCS(=O)(=O)C1", "note": "[Compound 350]", "IC50": "< 100"}
{"target": "T3, Avi-KRAS WT (1-169) GppNHp/RAF1 RBD-3xFLAG (52-151) (Homo sapiens, UniProt P01116)", "T3 construct": "Avi-KRAS WT (1-169)", "T3 sequence (P01116 1-169 isoform P01116-2)": "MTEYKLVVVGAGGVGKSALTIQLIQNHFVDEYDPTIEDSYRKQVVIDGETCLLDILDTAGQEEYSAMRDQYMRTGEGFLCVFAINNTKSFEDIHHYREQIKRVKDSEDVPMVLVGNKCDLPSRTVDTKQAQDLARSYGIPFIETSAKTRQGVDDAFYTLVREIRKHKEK", "assay": "Raf1-KRAS WT-GppNHP disruption HTRF assay (Biological Example 1)", "format": "binding", "details": "KRAS WT-GppNHp/RAF1 RBD HTRF", "summary_of_the_method": "as §1", "units": {"IC50": "nM"}}
{"smiles": "C[C@H]1N(C(=O)C2CC2)CC[C@@]1(C)N(C)c1nc(OC[C@@]23CCCN2C[C@H](F)C3)nc2c(F)c(-c3ccc(F)c4sc(N)c(C#N)c34)c(C(F)(F)F)cc12", "note": "[Compound 344]", "IC50": "100 to 1000"}
{"smiles": "CC(C)C(=O)N1CC[C@@](C)(N(C)c2nc(OC[C@@]34CCCN3C[C@H](F)C4)nc3c(F)c(-c4ccc(F)c5sc(N)c(C#N)c45)c(C(F)(F)F)cc23)[C@H]1C", "note": "[Compound 345]", "IC50": "1000 to 10000"}
{"smiles": "CC(=O)N1C[C@H](O)[C@@H](N(C)c2nc(OC[C@@]34CCCN3C[C@H](F)C4)nc3c(F)c(-c4ccc(F)c5sc(N)c(C#N)c45)c(C(F)(F)F)cc23)C1", "note": "[Compound 347]", "IC50": "100 to 1000"}
{"smiles": "CCC(=O)N1CC[C@H](N(CC)c2nc(OC[C@@]34CCCN3C[C@H](F)C4)nc3c(F)c(-c4ccc(F)c5sc(N)c(C#N)c45)c(C(F)(F)F)cc23)C1", "note": "[Compound 349]", "IC50": "100 to 1000"}
{"smiles": "CCN(c1nc(OC[C@@]23CCCN2C[C@H](F)C3)nc2c(F)c(-c3ccc(F)c4sc(N)c(C#N)c34)c(C(F)(F)F)cc12)[C@H]1CCS(=O)(=O)C1", "note": "[Compound 350]", "IC50": "100 to 1000"}
{"target": "T4, Avi-KRAS G12V (1-169) GppNHp/RAF1 RBD-3xFLAG (52-151) (Homo sapiens, UniProt P01116, G12V)", "T4 construct": "Avi-KRAS G12V (1-169)", "T4 sequence (P01116 1-169 isoform P01116-2 G12V)": "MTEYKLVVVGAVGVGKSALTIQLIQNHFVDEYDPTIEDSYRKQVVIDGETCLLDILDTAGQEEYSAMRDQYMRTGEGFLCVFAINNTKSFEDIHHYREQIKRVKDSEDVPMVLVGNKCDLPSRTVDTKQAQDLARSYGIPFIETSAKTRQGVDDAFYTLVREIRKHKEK", "assay": "Raf1-KRAS G12V-GppNHP disruption HTRF assay (Biological Example 1)", "format": "binding", "details": "KRAS G12V-GppNHp/RAF1 RBD HTRF", "summary_of_the_method": "as §1", "units": {"IC50": "nM"}}
{"smiles": "C[C@H]1N(C(=O)C2CC2)CC[C@@]1(C)N(C)c1nc(OC[C@@]23CCCN2C[C@H](F)C3)nc2c(F)c(-c3ccc(F)c4sc(N)c(C#N)c34)c(C(F)(F)F)cc12", "note": "[Compound 344]", "IC50": "1000 to 10000"}
{"smiles": "CC(C)C(=O)N1CC[C@@](C)(N(C)c2nc(OC[C@@]34CCCN3C[C@H](F)C4)nc3c(F)c(-c4ccc(F)c5sc(N)c(C#N)c45)c(C(F)(F)F)cc23)[C@H]1C", "note": "[Compound 345]", "IC50": "> 10000"}
{"smiles": "CC(=O)N1C[C@H](O)[C@@H](N(C)c2nc(OC[C@@]34CCCN3C[C@H](F)C4)nc3c(F)c(-c4ccc(F)c5sc(N)c(C#N)c45)c(C(F)(F)F)cc23)C1", "note": "[Compound 347]", "IC50": "100 to 1000"}
{"smiles": "CCC(=O)N1CC[C@H](N(CC)c2nc(OC[C@@]34CCCN3C[C@H](F)C4)nc3c(F)c(-c4ccc(F)c5sc(N)c(C#N)c45)c(C(F)(F)F)cc23)C1", "note": "[Compound 349]", "IC50": "100 to 1000"}
{"smiles": "CCN(c1nc(OC[C@@]23CCCN2C[C@H](F)C3)nc2c(F)c(-c3ccc(F)c4sc(N)c(C#N)c34)c(C(F)(F)F)cc12)[C@H]1CCS(=O)(=O)C1", "note": "[Compound 350]", "IC50": "100 to 1000"}
